Reference: ChEMBL document CHEMBL3608278 (J Med Chem, 2015)

Assays:
[1] = target: T1, Potassium voltage-gated channel subfamily A member 3 (Homo sapiens, UniProt P22001); assay type: cell-based, CHO-K1
[2] = target: T1, Potassium voltage-gated channel subfamily A member 3; assay: cell-based; design: species or system Blood
[3] = target: T1, Potassium voltage-gated channel subfamily A member 3; design: species or system Blood

T1 sequence (P22001 whole entry): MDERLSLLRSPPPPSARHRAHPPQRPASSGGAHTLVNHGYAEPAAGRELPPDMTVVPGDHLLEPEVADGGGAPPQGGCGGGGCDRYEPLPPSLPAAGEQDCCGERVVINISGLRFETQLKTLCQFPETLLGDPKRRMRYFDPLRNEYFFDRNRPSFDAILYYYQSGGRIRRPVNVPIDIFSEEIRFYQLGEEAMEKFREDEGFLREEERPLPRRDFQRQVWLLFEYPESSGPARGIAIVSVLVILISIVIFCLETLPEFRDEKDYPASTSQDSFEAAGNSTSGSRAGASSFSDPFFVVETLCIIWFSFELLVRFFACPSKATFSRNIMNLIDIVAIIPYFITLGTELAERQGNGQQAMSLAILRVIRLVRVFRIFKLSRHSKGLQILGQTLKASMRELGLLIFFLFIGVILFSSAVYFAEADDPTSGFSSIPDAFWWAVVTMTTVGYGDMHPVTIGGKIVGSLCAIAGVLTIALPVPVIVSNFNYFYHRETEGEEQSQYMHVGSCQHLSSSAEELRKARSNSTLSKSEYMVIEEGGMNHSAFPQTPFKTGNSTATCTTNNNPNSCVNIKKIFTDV

Row | IC50 [1] [nM] | IC50 [2] [nM] | IC50 [3] [nM] | SMILES
1 | > 3.33 | > 100 | > 100 | CC[C@H](C)[C@@H]1NC(=O)[C@@H](NC(=O)[C@H](CO)NC(=O)[C@@H](N)CCCNC(=N)N)CSSC[C@@H](C(=O)O)NC(=O)[C@H]([C@@H](C)O)NC(=O)CNC(=O)[C@@H]2CSSC[C@@H]3NC(=O)[C@H](CCC(N)=O)NC(=O)[C@H](Cc4ccccc4)NC(=O)[C@H](C)NC(=O)[C@H]([C@@H](C)O)NC(=O)[C@H](CSSC[C@H](NC(=O)[C@H](Cc4ccccc4)NC(=O)[C@H](CO)NC(=O)[C@H](CC(C)C)NC(=O)[C@H](CCCNC(=N)N)NC(=O)[C@H](Cc4ccc(O)cc4)NC(=O)[C@H](CCCNC(=N)N)NC(=O)[C@H](CCSC)NC(=O)[C@H](CO)NC(=O)[C@H](Cc4cnc[nH]4)NC(=O)[C@H](CCCCN)NC3=O)C(=O)N[C@@H](CCCNC(=N)N)C(=O)N[C@@H](CCCCN)C(=O)N[C@@H]([C@@H](C)O)C(=O)N2)NC(=O)[C@H](CCCNC(=N)N)NC(=O)[C@H](CO)NC(=O)[C@H](CCCCN)NC(=O)[C@@H]2CCCN2C(=O)[C@H]([C@@H](C)CC)NC(=O)[C@H]([C@@H](C)O)NC(=O)[C@H](CC(=O)O)NC1=O
2 | 0.293 | 0.041 | 0.071 | CC[C@H](C)[C@@H]1NC(=O)[C@@H](NC(=O)[C@H](CO)NC(=O)[C@@H](N)CCCNC(=N)N)CSSC[C@@H](C(=O)O)NC(=O)[C@H]([C@@H](C)O)NC(=O)CNC(=O)[C@@H]2CSSC[C@@H]3NC(=O)[C@H](CCC(N)=O)NC(=O)[C@H](Cc4ccccc4)NC(=O)[C@H](C)NC(=O)[C@H]([C@@H](C)O)NC(=O)[C@H](CSSC[C@H](NC(=O)[C@H](Cc4ccccc4)NC(=O)[C@H](CO)NC(=O)[C@H](CC(C)C)NC(=O)[C@H](CCCNC(=N)N)NC(=O)[C@H](Cc4ccc(O)cc4)NC(=O)[C@H](CCCCN)NC(=O)[C@H](CCSC)NC(=O)[C@H](CO)NC(=O)[C@H](Cc4cnc[nH]4)NC(=O)[C@H](CCCCN)NC3=O)C(=O)N[C@@H](CCCCN)C(=O)N[C@@H](CCCCN)C(=O)N[C@@H]([C@@H](C)O)C(=O)N2)NC(=O)[C@H](CCCNC(=N)N)NC(=O)[C@H](CO)NC(=O)[C@H](CCCCN)NC(=O)[C@@H]2CCCN2C(=O)[C@H]([C@@H](C)CC)NC(=O)[C@H]([C@@H](C)O)NC(=O)[C@H](CC(=O)O)NC1=O
3 | 0.275 | 1.5 | 8.01 | CC[C@H](C)[C@@H]1NC(=O)[C@@H](NC(=O)[C@H](CO)NC(=O)[C@@H](N)CCCNC(=N)N)CSSC[C@@H](C(=O)O)NC(=O)[C@H]([C@@H](C)O)NC(=O)CNC(=O)[C@@H]2CSSC[C@@H]3NC(=O)[C@H](CCC(N)=O)NC(=O)[C@H](Cc4ccccc4)NC(=O)[C@H](C)NC(=O)[C@H]([C@@H](C)O)NC(=O)[C@H](CSSC[C@H](NC(=O)[C@H](C)NC(=O)[C@H](CO)NC(=O)[C@H](CC(C)C)NC(=O)[C@H](CCCNC(=N)N)NC(=O)[C@H](Cc4ccc(O)cc4)NC(=O)[C@H](CCCCN)NC(=O)[C@H](CCSC)NC(=O)[C@H](CO)NC(=O)[C@H](Cc4cnc[nH]4)NC(=O)[C@H](CCCCN)NC3=O)C(=O)N[C@@H](CCCNC(=N)N)C(=O)N[C@@H](CCCCN)C(=O)N[C@@H]([C@@H](C)O)C(=O)N2)NC(=O)[C@H](CCCNC(=N)N)NC(=O)[C@H](CO)NC(=O)[C@H](CCCCN)NC(=O)[C@@H]2CCCN2C(=O)[C@H]([C@@H](C)CC)NC(=O)[C@H]([C@@H](C)O)NC(=O)[C@H](CC(=O)O)NC1=O
4 | 0.103 | 0.061 | 0.084 | CC[C@H](C)[C@@H]1NC(=O)[C@@H](NC(=O)[C@H](CO)NC(=O)[C@@H](N)CCCNC(=N)N)CSSC[C@@H](C(=O)O)NC(=O)[C@H]([C@@H](C)O)NC(=O)CNC(=O)[C@@H]2CSSC[C@@H]3NC(=O)[C@H](CCC(N)=O)NC(=O)[C@H](Cc4ccccc4)NC(=O)[C@H](C)NC(=O)[C@H]([C@@H](C)O)NC(=O)[C@H](CSSC[C@H](NC(=O)[C@H](Cc4ccccc4)NC(=O)[C@H](CO)NC(=O)[C@H](Cc4cccc5ccccc45)NC(=O)[C@H](CCCNC(=N)N)NC(=O)[C@H](Cc4ccc(O)cc4)NC(=O)[C@H](CCCCN)NC(=O)[C@H](CCSC)NC(=O)[C@H](CO)NC(=O)[C@H](Cc4cnc[nH]4)NC(=O)[C@H](CCCCN)NC3=O)C(=O)N[C@@H](CCCNC(=N)N)C(=O)N[C@@H](CCCCN)C(=O)N[C@@H]([C@@H](C)O)C(=O)N2)NC(=O)[C@H](CCCNC(=N)N)NC(=O)[C@H](CO)NC(=O)[C@H](CCCCN)NC(=O)[C@@H]2CCCN2C(=O)[C@H]([C@@H](C)CC)NC(=O)[C@H]([C@@H](C)O)NC(=O)[C@H](CC(=O)O)NC1=O
5 | > 3.33 | 13 | 59.7 | CC[C@H](C)[C@@H]1NC(=O)[C@@H](NC(=O)[C@H](CO)NC(=O)[C@@H](N)CCCNC(=N)N)CSSC[C@@H](C(=O)O)NC(=O)[C@H]([C@@H](C)O)NC(=O)CNC(=O)[C@@H]2CSSC[C@@H]3NC(=O)[C@H](CCC(N)=O)NC(=O)[C@H](Cc4ccccc4)NC(=O)[C@H](C)NC(=O)[C@H]([C@@H](C)O)NC(=O)[C@H](CSSC[C@H](NC(=O)[C@H](CCCNC(=N)N)NC(=O)[C@H](CO)NC(=O)[C@H](CC(C)C)NC(=O)[C@H](CCCNC(=N)N)NC(=O)[C@H](Cc4ccc(O)cc4)NC(=O)[C@H](CCCCN)NC(=O)[C@H](CCSC)NC(=O)[C@H](CO)NC(=O)[C@H](Cc4cnc[nH]4)NC(=O)[C@H](CCCCN)NC3=O)C(=O)N[C@@H](CCCNC(=N)N)C(=O)N[C@@H](CCCCN)C(=O)N[C@@H]([C@@H](C)O)C(=O)N2)NC(=O)[C@H](CCCNC(=N)N)NC(=O)[C@H](CO)NC(=O)[C@H](CCCCN)NC(=O)[C@@H]2CCCN2C(=O)[C@H]([C@@H](C)CC)NC(=O)[C@H]([C@@H](C)O)NC(=O)[C@H](CC(=O)O)NC1=O
6 | 0.193 | 0.108 | 0.193 | CC[C@H](C)[C@@H]1NC(=O)[C@@H](NC(=O)[C@H](CO)NC(=O)[C@@H](N)CCCNC(=N)N)CSSC[C@@H](C(=O)O)NC(=O)[C@H]([C@@H](C)O)NC(=O)CNC(=O)[C@@H]2CSSC[C@@H]3NC(=O)[C@H](CCC(N)=O)NC(=O)[C@H](Cc4ccccc4)NC(=O)[C@H](C)NC(=O)[C@H]([C@@H](C)O)NC(=O)[C@H](CSSC[C@H](NC(=O)[C@H](Cc4ccccc4)NC(=O)[C@H](CO)NC(=O)[C@H](CC(C)C)NC(=O)[C@H](CCCNC(=N)N)NC(=O)[C@H](Cc4ccc(O)cc4)NC(=O)[C@H](CCCCN)NC(=O)[C@H](CCSC)NC(=O)[C@H](CCCCN)NC(=O)[C@H](Cc4cnc[nH]4)NC(=O)[C@H](CCCCN)NC3=O)C(=O)N[C@@H](CCCNC(=N)N)C(=O)N[C@@H](CCCCN)C(=O)N[C@@H]([C@@H](C)O)C(=O)N2)NC(=O)[C@H](CCCNC(=N)N)NC(=O)[C@H](CO)NC(=O)[C@H](CCCCN)NC(=O)[C@@H]2CCCN2C(=O)[C@H]([C@@H](C)CC)NC(=O)[C@H]([C@@H](C)O)NC(=O)[C@H](CC(=O)O)NC1=O

Row | SMILES | IC50 [1] [nM] | IC50 [2] [nM] | IC50 [3] [nM]
7 | CC[C@H](C)[C@@H]1NC(=O)[C@@H](NC(=O)[C@H](CO)NC(=O)[C@@H](N)CCCNC(=N)N)CSSC[C@@H](C(=O)O)NC(=O)[C@H]([C@@H](C)O)NC(=O)CNC(=O)[C@@H]2CSSC[C@@H]3NC(=O)[C@H](CCC(N)=O)NC(=O)[C@H](Cc4ccccc4)NC(=O)[C@H](C)NC(=O)[C@H]([C@@H](C)O)NC(=O)[C@H](CSSC[C@H](NC(=O)[C@H](Cc4ccccc4)NC(=O)[C@H](CO)NC(=O)[C@H](CC(C)C)NC(=O)[C@H](CCCNC(=N)N)NC(=O)[C@H](Cc4ccc(O)cc4)NC(=O)[C@H](CCCCN)NC(=O)[C@H](CCSC)NC(=O)[C@H](CO)NC(=O)[C@H](Cc4c[nH]cn4)NC(=O)[C@H](CCCCN)NC3=O)C(=O)N[C@@H](CCCNC(=N)N)C(=O)N[C@@H](CCCCN)C(=O)N[C@@H](CCCNC(=N)N)C(=O)N2)NC(=O)[C@H](CCCNC(=N)N)NC(=O)[C@H](CO)NC(=O)[C@H](CCCCN)NC(=O)[C@@H]2CCCN2C(=O)[C@H]([C@@H](C)CC)NC(=O)[C@H]([C@@H](C)O)NC(=O)[C@H](CC(=O)O)NC1=O | > 3.33 | 11.1 | 39
8 | CC[C@H](C)[C@@H]1NC(=O)[C@@H](NC(=O)[C@H](CO)NC(=O)[C@@H](N)CCCNC(=N)N)CSSC[C@@H](C(=O)O)NC(=O)[C@H]([C@@H](C)O)NC(=O)CNC(=O)[C@@H]2CSSC[C@@H]3NC(=O)[C@H](CCC(N)=O)NC(=O)[C@H](Cc4ccccc4)NC(=O)[C@H](C)NC(=O)[C@H]([C@@H](C)O)NC(=O)[C@H](CSSC[C@H](NC(=O)[C@H](Cc4ccccc4)NC(=O)[C@H](CO)NC(=O)[C@H](CC(C)C)NC(=O)[C@H](CCCNC(=N)N)NC(=O)[C@H](Cc4ccc(O)cc4)NC(=O)[C@H](CCCCN)NC(=O)[C@H](CCSC)NC(=O)[C@H](CO)NC(=O)[C@H](Cc4cnc[nH]4)NC(=O)[C@H](CCCCN)NC3=O)C(=O)N[C@@H](CCCNC(=N)N)C(=O)N[C@@H](CCCCN)C(=O)N[C@@H]([C@@H](C)O)C(=O)N2)NC(=O)[C@H](CCCNC(=N)N)NC(=O)[C@H](CO)NC(=O)[C@H](CCCCN)NC(=O)[C@@H]2CCCN2C(=O)[C@H](Cc2cccc3ccccc23)NC(=O)[C@H]([C@@H](C)O)NC(=O)[C@H](CC(=O)O)NC1=O | > 3.33 | 11.6 | 18
9 | CC[C@H](C)[C@@H]1NC(=O)[C@@H](NC(=O)[C@H](CO)NC(=O)[C@@H](N)CCCNC(=N)N)CSSC[C@@H](C(=O)O)NC(=O)[C@H]([C@@H](C)O)NC(=O)CNC(=O)[C@@H]2CSSC[C@@H]3NC(=O)[C@H](CCC(N)=O)NC(=O)[C@H](Cc4ccccc4)NC(=O)[C@H](C)NC(=O)[C@H]([C@@H](C)O)NC(=O)[C@H](CSSC[C@H](NC(=O)[C@H](Cc4ccccc4)NC(=O)[C@H](CO)NC(=O)[C@H](CC(C)C)NC(=O)[C@H](CCCNC(=N)N)NC(=O)[C@H](Cc4ccc(O)cc4)NC(=O)[C@H](CCCCN)NC(=O)[C@H](CCSC)NC(=O)[C@H](CO)NC(=O)[C@H](Cc4cnc[nH]4)NC(=O)[C@H](CCCCN)NC3=O)C(=O)N[C@@H](CCCNC(=N)N)C(=O)N[C@@H](CCCCN)C(=O)N[C@@H]([C@@H](C)O)C(=O)N2)NC(=O)[C@H](CCCNC(=N)N)NC(=O)[C@H](CO)NC(=O)[C@H](CCCCN)NC(=O)[C@@H]2CCCN2C(=O)[C@H](C)NC(=O)[C@H]([C@@H](C)O)NC(=O)[C@H](CC(=O)O)NC1=O | 0.201 | 0.748 | 1.98
